Test [1] deals with Phakopsora pachyrhizi. Put plainly: Phakopsora pachyrhizi soybean rust, treated plants / leaf disk test. In kind it is in vivo. The settings on record: foliar, read-out: Observed Activity (%); for inhibition at 15 g/ha: single compound 15 g/ha. The procedure:
Phakopsora pachyrhizi (Soybean Rust):
Whole soybean plants are treated with the recited active ingredients 4 weeks after planting. 1 day after spraying leaf disks are cut from the first trifoliate leaf. Five repetitions at each rate are conducted. The leaf disks are inoculated with Phakopsora pachyrhizi (Asian soybean rust) one day after treatment. Evaluation of the leaf disks is conducted 11 to 14 days after inoculation and the activity is derived from the relation of the treated vs untreated, infested check. The rates of the active ingredients used are given in Table as g active ingredient (a.i.)/ha.

Test [2] concerns Mycosphaerella arachidis Syn. Cercospora arachidicola. Put plainly: Mycosphaerella arachidis liquid culture growth inhibition (microtiter plate, PDB, photometric). It counts as cell-based. The settings on record: read-out: Observed Activity (%); for inhibition at 10 ppm: single compound 10 ppm; for inhibition at 20 ppm: single compound 20 ppm; for inhibition at 0.625 ppm: single compound 0.625 ppm; for inhibition at 1.25 ppm: single compound 1.25 ppm; for inhibition at 2.5 ppm: single compound 2.5 ppm; for inhibition at 5 ppm: single compound 5 ppm. The procedure:
Mycosphaerella arachidis Syn. Cercospora arachidicola (Brown Leaf Spot of Peanut): Conidia of the fungus from cryogenic storage were directly mixed into nutrient broth (PDB potato dextrose broth). A DMSO solution of the test compounds was placed into a microtiter plate (96-well format) and the nutrient broth containing the fungal spores was added to it. The test plates were incubated at 24° C. and the inhibition of growth was determined photometrically after 5-6 days at 620 nm.

In test [3] the test system is Septoria Glycines. Briefly: Septoria glycines liquid culture growth inhibition (microtiter plate, PDB, visual). In kind it is cell-based. The settings on record: read-out: Observed Activity (%). The procedure: Septoria Glycines (Brown Spot): Conidia of the fungus from cryogenic storage were directly mixed into nutrient broth (PDB potato dextrose broth). A DMSO solution of the test compounds was placed into a microtiter plate (96-well format) and the nutrient broth containing the fungal spores was added to it.

Test [4] has as its system Septoria tritici. Briefly: Septoria tritici liquid culture growth inhibition (microtiter plate, PDB, photometric). In kind it is cell-based. The settings on record: Zymoseptoria tritici, read-out: Observed Activity (%). The method, then: Septoria tritici (Leaf Blotch): Conidia of the fungus from cryogenic storage were directly mixed into nutrient broth (PDB potato dextrose broth). A DMSO solution of the test compounds was placed into a microtiter plate (96-well format) and the nutrient broth containing the fungal spores was added to it.

The values below come from US20230371512A1, “FUNGICIDAL COMPOSITIONS” (SYNGENTA CROP PROTECTION AG, priority 2020, published 2023).

As for `CCN(C)C=Nc1cc(C)c(Oc2ccccc2F)cc1Cl` [N′-[2-chloro-4-(2-fluorophenoxy)-5-methyl-phenyl]-N-ethyl-N-methyl-formamidine], in test [1] (single compound 1 g/ha), the inhibition at 1 g/ha amounted to 4%. Besides, the inhibition at 2 g/ha in test [1] (single compound 2 g/ha) was 13%. In addition, the inhibition at 1 ppm in test [2] (single compound 1 ppm) is 70%. Further, the inhibition at 2 ppm in test [2] (single compound 2 ppm) is 90%.

As to `N#Cc1ccc(Oc2ccc(C(F)(F)C(O)(Cn3nc[nH]c3=S)c3ccc(F)cc3F)nc2)cc1` (stereo not drawn) [4-[[6-[2-(2,4-Difluorophenyl)-1,1-difluoro-2-hydroxy-3-(5-thioxo-4H-1,2,4-triazol-1-yl)propyl]-3-pyridyl]oxy]benzonitrile], the inhibition at 0.25 ppm in test [3] (single compound 0.25 ppm) amounted to 20%. Also, in test [3] (single compound 0.5 ppm), the inhibition at 0.5 ppm was 20%.

For `O=C(Nc1ccccc1F)c1ccc(-c2noc(C(F)(F)F)n2)cc1` [N-(2-fluorophenyl)-4-[5-(trifluoromethyl)-1,2,4-oxadiazol-3-yl]benzamide], in test [1] (single compound 0.75 g/ha), the inhibition at 0.75 g/ha came out at 27%. Also, the inhibition at 1.5 g/ha in test [1] (single compound 1.5 g/ha) came out at 45%.

As for `CNC(=O)C(F)(F)c1ccc(-c2noc(C(F)(F)F)n2)cc1` [2,2-difluoro-N-methyl-2-[4-[5-(trifluoromethyl)-1,2,4-oxadiazol-3-yl]phenyl]acetamide], in test [2], the inhibition at 10 ppm is 20% and the inhibition at 20 ppm is 50%.

Take `Cc1cc(C2=NC(C)(C)C(F)(F)c3ccccc32)cnc1C` [Compound A-1.1, 1-(5,6-dimethyl-3-pyridyl)-4,4-difluoro-3,3-dimethyl-isoquinoline]: the results for the inhibition at 5 ppm in test [3] (single compound 5 ppm), in test [2] and in test [4] (single compound 5 ppm) were 0%, 0% and 20%, respectively. For the same molecule, the inhibition at 10 ppm came to 20% in test [3] (single compound 10 ppm), 0% in test [2] and 50% in test [4] (single compound 10 ppm). In addition, the inhibition at 20 ppm in test [3] (single compound 20 ppm) is 50%; in test [2], 20%; in test [4] (single compound 20 ppm), 70%. Further, the inhibition at 15 g/ha in test [1] is 2%. In test [1] (single compound 30 g/ha), the inhibition at 30 g/ha was found to be 4%. Besides, in test [2], the inhibition at 0.625 ppm turned out to be 0%. The inhibition at 1.25 ppm in test [2] and in test [4] (single compound 1.25 ppm) was 0% each time. For the same molecule, the inhibition at 2.5 ppm in test [2] and in test [4] (single compound 2.5 ppm) was 0% each time.

For `CNC(=S)c1ccc(-c2noc(C(F)(F)F)n2)cc1` [N-methyl-4-[5-(trifluoromethyl)-1,2,4-oxadiazol-3-yl]benzenecarbothioamide], in test [2] (single compound 3 ppm), the inhibition at 3 ppm was 70%. Moreover, the inhibition at 6 ppm in test [2] (single compound 6 ppm) was found to be 90%; in test [4] (single compound 6 ppm), 50%.

Take `Cc1cc(C2=NC(C)(C)C(F)(F)c3ccccc32)cnc1C(F)F` [Compound A-1.2, 1-[6-(difluoromethyl)-5-methyl-3-pyridyl]-4,4-difluoro-3,3-dimethyl-isoquinoline]: in test [1], the inhibition at 15 g/ha turned out to be 12%. In test [2], the inhibition at 0.625 ppm was found to be 0%, the inhibition at 1.25 ppm was 0%, the inhibition at 2.5 ppm worked out at 0% and the inhibition at 5 ppm worked out at 0%. Moreover, in test [2], the inhibition at 10 ppm was found to be 20% and the inhibition at 20 ppm worked out at 50%.
